The results in this text go back to patent publication US20130344026A1, “Dimeric Smac Mimetics” (priority 2009, published 2013).

The experiment deals with PANC-1 cells. Description: cell viability assay in PANC-1 cells (compound alone, + 100 ng/ml TNFa, + 300 ng/ml TRAIL). Format: cell-based.
The mark [1] stands for this setting: compound alone, Tables 6-10, read-out: IC50 (μM) in cell viability assay in PANC-1 cells: Compound alone.
[2] abbreviates: with 100 ng/ml TNFa, Tables 6-10, read-out: IC50 (μM) in cell viability assay in PANC-1 cells: Compound + 100 ng/ml TNFa.
Where [3] appears, read: with 300 ng/ml TRAIL, Tables 6-10, read-out: IC50 (μM) in cell viability assay in PANC-1 cells: Compound + 300 ng/ml TRAIL.
Where [4] appears, read: Homo sapiens, PANC-1, compound alone, Tables 15-18, read-out: IC50 (uM) in cell viability assay in PANC-1 cells: Cmpnd alone.
Where [5] appears, read: with 100 ng/ml TNFa, Tables 15-18, read-out: IC50 (uM) in cell viability assay in PANC-1 cells: Cmpnd + 100 ng/ml TNFa.
Where [6] appears, read: with 300 ng/ml TRAIL, Tables 15-18, read-out: IC50 (uM) in cell viability assay in PANC-1 cells: Cmpnd + 300 ng/ml TRAIL.
Setting [7] is: Homo sapiens, PANC-1, compound alone, Tables 6-10, read-out: IC50 (μM) in cell viability assay in PANC-1 cells: Compound alone.

Molecules are shown by their SMILES. Read-outs that look alike come from different tables or passages of the source. Where only a bound is given, the exact number is not on record here.

Regarding `CN[C@@H](C)C(=O)N[C@H](C(=O)N1C[C@@H](NC(=O)c2cccc(C(=O)N[C@H]3C[C@@H](C(=O)NC4CCCc5cc(F)ccc54)N(C(=O)[C@@H](NC(=O)[C@H](C)NC)C(C)(C)C)C3)c2)C[C@H]1C(=O)NC1CCCc2cc(F)ccc21)C(C)(C)C` (single isomer, unassigned) [Compound 73], the IC50 runs as follows: under setting [1], more than 1 µM; under setting [2], 0.0698 µM; under setting [3], 0.073 µM.

As for `CN[C@@H](C)C(=O)N[C@@H](CCCCNC(=O)c1cccc(C(=O)NCCCC[C@H](NC(=O)[C@H](C)NC)C(=O)N2CCC[C@H]2Cn2nnnc2Sc2ccccc2)c1)C(=O)N1CCC[C@H]1Cn1nnnc1Sc1ccccc1` [Compound P2-48], the IC50 was more than 1 µM under setting [4], 0.263 µM under setting [5] and 0.398 µM under setting [6].

Turning to `CN[C@@H](C)C(=O)NC(C(=O)N[C@@H](CCNC(=O)CCc1cn([C@H]2C[C@@H](C(=O)N[C@@H]3CCCc4ccccc43)N(C(=O)[C@@H](NC(=O)[C@H](C)NC)C(C)(C)C)C2)nn1)C(=O)N[C@H](C)c1ccccc1)C(C)(C)C` (stereo partly drawn) [Compound 197], the IC50 reads like this: under setting [7], more than 1 µM; under setting [2], 0.128 µM; under setting [3], 0.18 µM.

In the case of `CN[C@@H](C)C(=O)N[C@@H](CCCCCC[C@H](NC(=O)[C@H](C)NC)C(=O)N1c2ccccc2C[C@H]1C(=O)N[C@H](C)c1ccccc1)C(=O)N1c2ccccc2C[C@H]1C(=O)N[C@H](C)c1ccccc1` [Compound 92], the IC50 reads like this: under setting [7], more than 1 µM; under setting [2], 0.547 µM; under setting [3], 0.798 µM.

In the case of `CN[C@@H](C)C(=O)N[C@H](C(=O)N1CCC[C@H]1c1nc(C(=O)NCCCCCCCCNC(=O)c2nc([C@@H]3CCCN3C(=O)[C@@H](NC(=O)[C@H](C)NC)C(C)(C)C)oc2-c2c[nH]c3ccccc23)c(-c2c[nH]c3ccccc23)o1)C(C)(C)C` [Compound P4-26], the IC50 runs as follows: under setting [4], more than 1 µM; under setting [5], 0.0007 µM; under setting [6], 0.0007 µM.

On to `CN[C@@H](C)C(=O)N[C@H](C(=O)N1C[C@@H](NC(=O)c2cccc(C(=O)N[C@H]3C[C@@H](C(=O)N[C@@H]4CCCc5ccc(Br)cc54)N(C(=O)[C@@H](NC(=O)[C@H](C)NC)C(C)(C)C)C3)c2)C[C@H]1C(=O)N[C@@H]1CCCc2ccc(Br)cc21)C(C)(C)C` (single isomer, unassigned) [Compound 63], for which the IC50 under setting [1] is more than 1 µM, the IC50 under setting [2] amounted to 0.143 µM and the IC50 under setting [3] turned out to be 0.162 µM.

For `CN[C@@H](C)C(=O)N[C@H](C(=O)N1CCC[C@H]1C(=O)N[C@H]1c2ccccc2C[C@@H]1NC(=O)CCCCC(=O)N[C@H]1Cc2ccccc2[C@@H]1NC(=O)[C@@H]1CCCN1C(=O)[C@@H](NC(=O)[C@H](C)NC)C(C)(C)C)C(C)(C)C` [Compound 123], the IC50 is, setting by setting: under setting [7], more than 1 µM; under setting [2], 0.069 µM; under setting [3], 0.067 µM.

With `CN[C@@H](C)C(=O)N[C@@H](CCCCNC(=O)CCCCCCC(=O)NCCCC[C@H](NC(=O)[C@H](C)NC)C(=O)N1CCC[C@H]1C(=O)N[C@@H]1CCCc2ccccc21)C(=O)N1CCC[C@H]1C(=O)N[C@@H]1CCCc2ccccc21` [Compound P2-34], the IC50 is, setting by setting: under setting [4], more than 1 µM; under setting [5], 0.04 µM; under setting [6], 0.064 µM.

Regarding `CN[C@@H](C)C(=O)N[C@@H](CCCCCC[C@H](NC(=O)[C@H](C)NC)C(=O)N1C[C@@H](F)C[C@H]1C(=O)N[C@@H]1CCCc2ccccc21)C(=O)N1C[C@@H](F)C[C@H]1C(=O)N[C@@H]1CCCc2ccccc21` [Compound 100], the IC50 by setting is: under setting [7], more than 1 µM; under setting [2], 0.057 µM; under setting [3], 0.052 µM.

Consider `CN[C@@H](C)C(=O)NC(CCC(=O)Nc1ccc(CCc2ccc(NC(=O)CCC(NC(=O)[C@H](C)NC)C(=O)N3CCC[C@H]3C(=O)N[C@@H]3CCCc4ccccc43)cc2)cc1)C(=O)N1CCC[C@H]1C(=O)NC1CCCc2ccccc21` (stereo partly drawn) [Compound P2-45], for which the IC50 runs as follows: under setting [4], more than 1 µM; under setting [5], 0.002 µM; under setting [6], 0.004 µM.

Consider `CN[C@@H](C)C(=O)N[C@H](C(=O)N[C@@H](CCNC(=O)c1cccc(C(=O)N[C@H]2C[C@@H](C(=O)N[C@@H]3CCCc4ccccc43)N(C(=O)[C@@H](NC(=O)[C@H](C)NC)C(C)(C)C)C2)c1)C(=O)N[C@H](C)c1ccccc1)C(C)(C)C` [Compound 174], for which the IC50 reads like this: under setting [7], more than 1 µM; under setting [2], 0.0069 µM; under setting [3], 0.0107 µM.

For `CC[C@@H](NC(=O)[C@@H]1C[C@H](NC(=O)c2cccc(C(=O)N[C@H]3C[C@@H](C(=O)N[C@H](CC)c4ccccc4)N(C(=O)[C@@H](NC(=O)[C@H](C)NC)C(C)(C)C)C3)c2)CN1C(=O)[C@@H](NC(=O)[C@H](C)NC)C(C)(C)C)c1ccccc1` [Compound 1], the IC50 is more than 1 µM under setting [7], 0.0023 µM under setting [2] and 0.0019 µM under setting [3].

Take `CN[C@@H](C)C(=O)N[C@H](C(=O)N[C@@H](CCNC(=O)CC[C@H](NC(=O)[C@@H](NC(=O)[C@H](C)NC)C(C)(C)C)C(=O)N[C@@H]1CCCc2ccccc21)C(=O)N[C@H](C)C(C)C)C(C)C` [Compound 166]: the IC50 is, setting by setting: under setting [7], more than 1 µM; under setting [2], 0.994 µM; under setting [3], more than 1 µM.

As for `CN[C@@H](C)C(=O)N[C@H](C(=O)N1C[C@@H](NC(=O)CCc2ccc(C(=O)N[C@H]3C[C@@H](C(=O)N[C@@H]4CCCc5ccccc54)N(C(=O)[C@@H](NC(=O)[C@H](C)NC)C(C)(C)C)C3)cc2)C[C@H]1C(=O)N[C@@H]1CCCc2ccccc21)C(C)(C)C` [Compound 191], the IC50 was more than 1 µM under setting [7], 0.013 µM under setting [2] and 0.012 µM under setting [3].

With `CN[C@@H](C)C(=O)N[C@@H](CCCCCC[C@H](NC(=O)[C@H](C)NC)C(=O)N1CCC[C@H]1CNC(=O)Cc1ccccc1)C(=O)N1CCC[C@H]1CNC(=O)Cc1ccccc1` [Compound 77], the IC50 is, setting by setting: under setting [7], more than 1 µM; under setting [2], more than 1 µM; under setting [3], more than 1 µM.

As for `CN[C@@H](C)C(=O)N[C@H](C(=O)N1CCC[C@H]1C(=O)N[C@H](C)c1ccccc1)[C@H](C)n1cc(CCCc2cn([C@@H](C)[C@H](NC(=O)[C@H](C)NC)C(=O)N3CCC[C@H]3C(=O)N[C@H](C)c3ccccc3)nn2)nn1` [Compound 115], the IC50 was more than 1 µM under setting [7], 0.057 µM under setting [2] and 0.063 µM under setting [3].

For `CCC1(NC(=O)[C@@H]2C[C@H](NC(=O)c3cccc(C(=O)N[C@H]4C[C@@H](C(=O)NC5(CC)CCCc6ccccc65)N(C(=O)[C@@H](NC(=O)[C@H](C)NC)C(C)(C)C)C4)c3)CN2C(=O)[C@@H](NC(=O)[C@H](C)NC)C(C)(C)C)CCCc2ccccc21` (stereo partly drawn) [Compound 51], the IC50 is more than 1 µM under setting [1], 0.104 µM under setting [2] and 0.081 µM under setting [3].

Regarding `CN[C@@H](C)C(=O)N[C@H](C(=O)N1C[C@@H](NC(=O)c2cccc(C(=O)N[C@H]3C[C@@H](C(=O)NC4CCCc5c(OC)cccc54)N(C(=O)[C@@H](NC(=O)[C@H](C)NC)C(C)(C)C)C3)c2)C[C@H]1C(=O)NC1CCCc2c(OC)cccc21)C(C)(C)C` (single isomer, unassigned) [Compound 46], the IC50 under setting [7] is more than 1 µM, the IC50 under setting [2] came to 0.048 µM and the IC50 under setting [3] stood at 0.014 µM.

Regarding `CN[C@@H](C)C(=O)N[C@H](C(=O)N[C@@H](CCNC(=O)c1ccc(CCc2ccc(C(=O)N[C@@H]3C[C@@H](C(=O)N[C@@H]4CCCc5ccccc54)N(C(=O)[C@@H](NC(=O)[C@H](C)NC)C(C)(C)C)C3)cc2)cc1)C(=O)NC(C)C(C)C)C(C)C` (stereo partly drawn) [Compound 201], the IC50 was more than 1 µM under setting [7], 0.027 µM under setting [2] and 0.057 µM under setting [3].

`CN[C@@H](C)C(=O)N[C@H](C(=O)N1CCC[C@H]1c1cc(C(=O)OC)c(-c2cn(CC#CC#CCn3cc(-c4oc([C@@H]5CCCN5C(=O)[C@@H](NC(=O)[C@H](C)NC)C(C)(C)C)cc4C(=O)OC)c4ccccc43)c3ccccc23)o1)C(C)(C)C` [Compound P4-25]: the IC50 is more than 1 µM under setting [4], 0.0342 µM under setting [5] and 0.0408 µM under setting [6].

Take `CN[C@@H](C)C(=O)Nc1nc(CC(=O)NCCCC[C@H](NC(=O)[C@H](C)NC)C(=O)N2CCC[C@H]2C(=O)N[C@@H]2CCCc3ccccc32)cs1` [Compound 189]: the IC50 by setting is: under setting [7], more than 1 µM; under setting [2], more than 1 µM; under setting [3], more than 1 µM.

Consider `CN[C@@H](C)C(=O)NC(C(=O)N[C@@H](CCC(=O)NCCc1cn([C@H]2C[C@@H](C(=O)N[C@@H]3CCCc4ccccc43)N(C(=O)[C@@H](NC(=O)[C@H](C)NC)C(C)(C)C)C2)nn1)C(=O)N[C@H](C)C(C)C)C(C)C` (stereo partly drawn) [Compound 203], for which the IC50 is more than 1 µM under setting [7], 0.683 µM under setting [2] and 0.616 µM under setting [3].

For `CN[C@@H](CO)C(=O)N[C@H](C(=O)N1C[C@@H](NC(=O)c2cccc(C(=O)N[C@H]3C[C@@H](C(=O)N[C@H](C)c4ccccc4)N(C(=O)[C@@H](NC(=O)[C@H](CO)NC)C(C)(C)C)C3)c2)C[C@H]1C(=O)N[C@H](C)c1ccccc1)C(C)(C)C` [Compound P3-90], the IC50 (Homo sapiens, PANC-1 cells, compound alone, read-out: IC50 (uM) in cell viability assay in PANC-1 cells, Cmpnd alone) was more than 1 µM; the IC50 (PANC-1 cells, + 100 ng/ml TNFa, read-out: IC50 (uM) in cell viability assay in PANC-1 cells, Cmpnd + 100 ng/ml TNFa) turned out to be 0.007 µM; the IC50 (PANC-1 cells, + 300 ng/ml TRAIL, read-out: IC50 (uM) in cell viability assay in PANC-1 cells, Cmpnd + 300 ng/ml TRAIL) amounted to 0.021 µM.
